Measured values from US20230213520A1, “IN VITRO METHOD FOR THE PROGNOSIS OF DISEASE PROGRESSION IN A PATIENT THAT SUFFERS FROM OR IS AT RISK OF DEVELOPING A SOLID TUMOR” (Bergonié Institute, priority 2020, published 2023).
“And” between values parts separate entries of the source, which are not always exact repeats. Equal entries are not always repeated.

Key:
[1] = REGOMUNE phase II study: safety (adverse events, CTCAE v5.0); parameters: species or system human; details: in vivo
Method: After an assessment of eligibility, patients received Regorafenib 160 mg per day on a three weeks on/one week off schedule, in cycles of 28 days. Avelumab treatment began on Day 15 cycle 1, by intravenous infusion once every 2 weeks. Treatment was continued until disease progression, unacceptable toxicity, investigator's decision to discontinue, or withdrawal of patient consent. Participants were monitored for adverse events at every follow-up assessment. Adverse events were graded according to National Cancer Institute Common Terminology Criteria for Adverse Events version 5.0. Laboratory assessments were done at baseline, and every 2 weeks afterwards until treatment discontinuation. Regorafenib dose modifications to manage adverse events were allowed (see study protocol). The dose of Regorafenib could be reduced to 120 mg and then to 80 mg. […] Tumor lesions were assessed according to RECIST version 1.1 at baseline (within 4 weeks prior to Cycle 1 Day 1), and every 8 weeks until disease progression or the start of another treatment. […]
All enrolled patients who initiated the study treatment were included in the safety analysis. […] The median follow-up was calculated using the reverse Kaplan-Meier method. […] Quantitative variables were described using the median and range, and qualitative variables were described using frequency, percentage and 95% confidence interval (binomial law). […]

[2] = tested on: metastatic colorectal cancer; details: cited from earlier work
[3] = tested on: immunosuppressive macrophage infiltration; details: preclinical model of metastatic colorectal cancer; cited from earlier work
[4] = Regorafenib single agent in addition to supportive care, pivotal study

| Compound | Patients with dose reduction or temporary treatment discontinuation because of a drug-related adverse event ([1]; human) [patients] | Patients with grade 3 or 4 treatment-related adverse events that needed some dose reduction ([2]; CORRECT (as well as CONCUR) study, single agent) | Median overall survival [2, 4] [months] | Median progression-free survival [2, 4] | Objective response rate ([2]; pivotal randomized study) [%] | Effect on immunosuppressive macrophage infiltration [3] | Patients with dose reduction or temporary treatment discontinuation because of a drug-related adverse event [1] [patients] |
| --- | --- | --- | --- | --- | --- | --- | --- |
| CNC(=O)c1cc(Oc2ccc(NC(=O)Nc3ccc(Cl)c(C(F)(F)F)c3)c(F)c2)ccn1 [Regorafenib] | 41 | up to 54% | 6.4 | 1.9 months and 2 months | 1 | reduce immunosuppressive macrophage infiltration | – |
| Avelumab | – | – | – | – | – | – | 17 |
